melting point: 229 °C
SMILES: COc1ccc(CNc2nc(CCC(=O)O)nc3sc4c(c23)CCCC4)cc1Cl [Example 2, 3-[4-(3-chloro-4-methoxybenzylamino)-5,6,7,8-tetrahydro-[1]-benzothieno-[2,3-d]-pyrimidin-2-yl]propionic acid]

Reference: patent US20040072846A1, “Pharmaceutical formulation containing thienopyrimidines and antithrombotics, calcium antagonists, prostaglandins or prostaglandin derivatives” (priority 2000, published 2004)
